In the NIST ThermoML archive (doi:10.1016/j.jct.2015.05.028):

How the values were obtained:
[1] = Crystal; DTA
[2] = mn = molality of the nth substance listed, in mol/kg; conditions: 99.6 kPa, Liquid, Vibrating tube method

CCN1C(=O)N(CC)C2NC(=O)NC21 (centres undefined)
Conditions	Normal melting temperature [°C]
[1]	327.64

CN1C(=O)N(C)C2NC(=O)NC21 (centres undefined)
Conditions	Normal melting temperature [°C]
[1]	253.28

CN1C(=O)N(C)C2NC(=O)NC21 (centres undefined) + O
mass density [kg/m3], [2]
Conditions	278.15 K	288.15 K	298.15 K	308.15 K	318.15 K
m1 = 0.06671	1003.16	1002.21	1000.08	997.02	993.153
m1 = 0.0951	1004.51	1003.52	1001.37	998.281	994.389
m1 = 0.1319	1006.28	1005.23	1003.04	999.917	995.999
m1 = 0.169	1008.03	1006.93	1004.72	1001.55	997.607
m1 = 0.1987	1009.43	1008.31	1006.04	1002.87	998.902
m1 = 0.2323	1011.02	1009.84	1007.54	1004.34	1000.35
m1 = 0.2679	1012.68	1011.46	1009.13	1005.9	1001.88
m1 = 0.3038	1014.37	1013.1	1010.73	1007.47	1003.42
m1 = 0.3326	1015.72	1014.41	1012.01	1008.71	1004.65
m1 = 0.3594	1016.96	1015.62	1013.19	1009.88	1005.79
m1 = 0.3919	1018.47	1017.09	1014.62	1011.29	1007.17

O [water] + CCN1C(=O)N(CC)C2NC(=O)NC21
Conditions	mass density [kg/m3]
[2], 278.15 K, m2 = 0	999.964

O [water] + CN1C(=O)N(C)C2NC(=O)NC21
Conditions	mass density [kg/m3]
[2], 278.15 K, m2 = 0	999.965
